For the first assay, the system named is MV4:11 human cancer cell lines. Nature of the assay: Cellular viability / anti-proliferative activity, CellTiter-Glo, 5 day protocol. In kind it is cell-based. Particulars: Homo sapiens, MV4-11, 120 h, MV4:11 cells; 5 day incubation; CellTiter-Glo; mean of minimum two replicates; read-out: GI50 on cellular proliferation of MV4:11 human cancer cell lines. Here is the method:
Cellular Viability of Human Tumor Cell Lines
Anti proliferative activity using MLL-harboring cell lines. […] Viability assays are performed by dispensing 200 cells at 7200 cells/mL into each well of an opaque 384-well plate and adding compounds at the indicated concentrations in a final volume of 32 μL and a final concentration of DMSO of 0.3% for all samples. A certain range of compound concentrations is made through a series of 2-fold dilutions starting 30 μM at the highest, total 22 dilutions. After a set incubation period, 5 day protocol, the viability of cells in each well is assessed using the CellTiter-Glo assay (Promega), read on a 96 Microplane Luminometer (Cytation 3, BioTek). Serial dilutions of each cell type are performed in all assays to generate standard curves and the final densities of cells are determined within the dynamic range of the instrument. GI50 values are calculated based on XLfit software (IDBS, Guildford, UK) with Sigmoidal Dose-Response Model. Each compound is tested in minimum of two replicates. Data are expressed as mean.
On the technique in general: In ATP-based viability assays light output follows the ATP content of the culture.
As to `COc1ccnc(CN2CCc3c(cc(Cn4ccn(C5CC5)c4=N)cc3-c3cn(C)nc3C(F)(F)F)C2=O)c1` [Example 45, 7-((3-Cyclopropyl-2-imino-2,3-dihydro-1H-imidazol-1-yl)methyl)-2-((4-methoxypyridin-2-yl)methyl)-5-(1-methyl-3-(trifluoromethyl)-1H-pyrazol-4-yl)-3,4-dihydroisoquinolin-1(2H)-one], the GI50 worked out at 113 nM.

Regarding `COc1ccnc(CN2CCc3c(cc(CN4CCN(C5CC5)C4=N)cc3-c3cn(C)nc3C)C2=O)c1` [Example 46, 7-((3-Cyclopropyl-2-iminoimidazolidin-1-yl)methyl)-5-(1,3-dimethyl-1H-pyrazol-4-yl)-2-((4-methoxypyridin-2-yl)methyl)-3,4-dihydroisoquinolin-1(2H)-one], the GI50 stood at 449 nM.

`Cc1ccnc([C@H](C2CC2)N2CCc3c(cc(Cn4ccnc4C)cc3-c3ccc(F)cc3C)C2=O)c1` [Example 12, (S)-2-(Cyclopropyl(4-methylpyridin-2-yl)methyl)-5-(4-fluoro-2-methylphenyl)-7-((2-methyl-1H-imidazol-1-yl)methyl)-3,4-dihydroisoquinolin-1(2H)-one]: the GI50 is 69 nM.

For the compound `CCn1cc(-c2cc(Cn3ccnc3C)cc3c2CCN(Cc2cn(C)nc2C)C3=O)c(C(F)(F)F)n1` [Example 20, 2-((1,3-Dimethyl-1H-pyrazol-4-yl)methyl)-5-(1-ethyl-3-(trifluoromethyl)-1H-pyrazol-4-yl)-7-((2-methyl-1H-imidazol-1-yl)methyl)-3,4-dihydroisoquinolin-1(2H)-one], the GI50 was 508 nM.

Take `COc1ccnc(CN2CCc3c(cc(Cn4ccn(C)c4=N)cc3C3CC3)C2=O)c1` [Example 54, 5-Cyclopropyl-7-((2-imino-3-methyl-2,3-dihydro-1H-imidazol-1-yl)methyl)-2-((4-methoxypyridin-2-yl)methyl)-3,4-dihydroisoquinolin-1(2H)-one]: the GI50 was found to be 880 nM.

As for `COc1ccnc(CN2CCc3c(cc(CN4CCCC4=N)cc3-c3cn(C)nc3C(F)(F)F)C2=O)c1` [Example 108, 7-((2-Iminopyrrolidin-1-yl)methyl)-2-((4-methoxypyridin-2-yl)methyl)-5-(1-methyl-3-(trifluoromethyl)-1H-pyrazol-4-yl)-3,4-dihydroisoquinolin-1(2H)-one], the GI50 came to 181 nM.

For `COc1ccnc(CN2CCc3c(cc(Cn4ccn(C)c4=N)cc3-c3cn(C)nc3C)C2=O)c1` [Example 42, 5-(1,3-Dimethyl-1H-pyrazol-4-yl)-7-((2-imino-3-methyl-2,3-dihydro-1H-imidazol-1-yl)methyl)-2-((4-methoxypyridin-2-yl)methyl)-3,4-dihydroisoquinolin-1(2H)-one], the GI50 is 291 nM.

For the compound `CCn1cc(-c2cc(CN3CCCC3=N)cc3c2CCN(Cc2cc(OC)ccn2)C3=O)cn1` [Example 111, 5-(1-Ethyl-1H-pyrazol-4-yl)-7-((2-iminopyrrolidin-1-yl)methyl)-2-((4-methoxypyridin-2-yl)methyl)-3,4-dihydroisoquinolin-1(2H)-one], the GI50 was above 938 nM.

Regarding `Cc1nccn1Cc1cc2c(c(-c3cn(C)nc3C(F)(F)F)c1)CCN(Cc1ccccn1)C2=O` [Example 180, 7-((2-Methyl-1H-imidazol-1-yl)methyl)-5-(1-methyl-3-(trifluoromethyl)-1H-pyrazol-4-yl)-2-(pyridin-2-ylmethyl)-3,4-dihydroisoquinolin-1(2H)-one], the GI50 was determined as 1590 nM.

On to `COc1ccnc(CN2CCc3c(cc(Cn4ccn(C5CC5)c4=N)cc3-c3cn(C)nc3C)C2=O)c1` [Example 48], for which the GI50 worked out at 423 nM.

As for `Cc1nccn1Cc1cc2c(c(-c3cn(C)nc3C(F)(F)F)c1)CCN(CC1CCOCC1)C2=O` [Example 173, 7-((2-Methyl-1H-imidazol-1-yl)methyl)-5-(1-methyl-3-(trifluoromethyl)-1H-pyrazol-4-yl)-2-((tetrahydro-2H-pyran-4-yl)methyl)-3,4-dihydroisoquinolin-1(2H)-one], the GI50 was 3910 nM.

For `CCn1cc(-c2cc(Cc3ncc[nH]3)cc3c2CCN([C@@H](C)c2cc(OC)ccn2)C3=O)c(C(F)(F)F)n1` [Example 230, (S)-7-((1H-Imidazol-2-yl)methyl)-5-(1-ethyl-3-(trifluoromethyl)-1H-pyrazol-4-yl)-2-(1-(4-methoxypyridin-2-yl)ethyl)-3,4-dihydroisoquinolin-1(2H)-one], the GI50 is below 50 nM.

In the case of `Cc1cc([C@H](C)N2CCc3c(cc(Cn4ccn(C)c4=N)cc3-c3ccc(F)cc3C)C2=O)ccc1F` [Example 40, (S)-5-(4-Fluoro-2-methylphenyl)-2-(1-(4-fluoro-3-methylphenyl)ethyl)-7-((2-imino-3-methyl-2,3-dihydro-1H-imidazol-1-yl)methyl)-3,4-dihydroisoquinolin-1(2H)-one], the GI50 was below 50 nM.

For `COc1cc(CN2CCc3cc(F)c(Cn4ccn(C)c4=N)cc3C2=O)cc(OC)c1` [Example 25, 2-(3,5-Dimethoxybenzyl)-6-fluoro-7-((2-imino-3-methyl-2,3-dihydro-1H-imidazol-1-yl)methyl)-3,4-dihydroisoquinolin-1(2H)-one], the GI50 was above 938 nM.

In the case of `COc1cc(CN2CCc3c(cc(Cn4ccnc4C)cc3-c3cn(C)nc3C(F)(F)F)C2=O)cc(OC)c1` [Example 10, 2-(3,5-Dimethoxybenzyl)-7-((2-methyl-1H-imidazol-1-yl)methyl)-5-(1-methyl-3-(trifluoromethyl)-1H-pyrazol-4-yl)-3,4-dihydroisoquinolin-1(2H)-one], the GI50 is below 50 nM.

`COc1cc(CN2CCCc3c(cc(Cn4ccnc4C)cc3-c3ccc(F)cc3C)C2=O)cc(OC)c1` [Example 141, 2-(3,5-dimethoxybenzyl)-6-(4-fluoro-2-methylphenyl)-8-((2-methyl-1H-imidazol-1-yl)methyl)-2,3,4,5-tetrahydro-1H-benzo[c]azepin-1-one]: the GI50 was above 938 nM.

With `COc1cc(CN2CCc3c(cc(Cn4ccn(C5CC5)c4=N)cc3-c3ccc(F)cc3C)C2=O)cc(OC)c1` [Example 38, 7-((3-Cyclopropyl-2-imino-2,3-dihydro-1H-imidazol-1-yl)methyl)-2-(3,5-dimethoxybenzyl)-5-(4-fluoro-2-methylphenyl)-3,4-dihydroisoquinolin-1(2H)-one], the GI50 was 95 nM.

For the compound `COc1ccnc(CN2CCc3c(cc(Cn4ccnc4C4CC4)cc3-c3cn(C)nc3C(F)(F)F)C2=O)c1` [Example 11, 7-((2-Cyclopropyl-1H-imidazol-1-yl)methyl)-2-((4-methoxypyridin-2-yl)methyl)-5-(1-methyl-3-(trifluoromethyl)-1H-pyrazol-4-yl)-3,4-dihydroisoquinolin-1(2H)-one], the GI50 came out at 54 nM.

With `CCn1cc(-c2cc(Cn3ccn(C)c3=N)cc3c2CCN(Cc2cn(C)nc2C)C3=O)c(C(F)(F)F)n1` [Example 77, 2-((1,3-Dimethyl-1H-pyrazol-4-yl)methyl)-5-(1-ethyl-3-(trifluoromethyl)-1H-pyrazol-4-yl)-7-((2-imino-3-methyl-2,3-dihydro-1H-imidazol-1-yl)methyl)-3,4-dihydroisoquinolin-1(2H)-one], the GI50 is above 938 nM.

For `CCn1cc(-c2cc(Cn3ccn(C)c3=N)cc3c2CCN(Cc2cc(OC)ccn2)C3=O)cn1` [Example 49, 5-(1-Ethyl-1H-pyrazol-4-yl)-7-((2-imino-3-methyl-2,3-dihydro-1H-imidazol-1-yl)methyl)-2-((4-methoxypyridin-2-yl)methyl)-3,4-dihydroisoquinolin-1(2H)-one], the GI50 amounted to 906 nM.

`CCn1cc(-c2cc(Cn3ccnc3C3CC3)cc3c2CCN([C@@H](C)c2cc(OC)ccn2)C3=O)c(C(F)(F)F)n1` [Example 159, (S)-7-((2-Cyclopropyl-1H-imidazol-1-yl)methyl)-5-(1-ethyl-3-(trifluoromethyl)-1H-pyrazol-4-yl)-2-(1-(4-methoxypyridin-2-yl)ethyl)-3,4-dihydroisoquinolin-1(2H)-one]: the GI50 was below 50 nM.

Turning to `CCn1cc(-c2cc(CN3Cc4ccccc4C3=N)cc3c2CCN(Cc2cc(OC)ccn2)C3=O)c(C(F)(F)F)n1` [Example 115, 5-(1-Ethyl-3-(trifluoromethyl)-1H-pyrazol-4-yl)-7-((1-iminoisoindolin-2-yl)methyl)-2-((4-methoxypyridin-2-yl)methyl)-3,4-dihydroisoquinolin-1(2H)-one], the GI50 is above 938 nM.

`CCc1ccnc(CN2CCc3c(cc(Cn4cnn(C)c4=N)cc3-c3cn(CC)nc3C(F)(F)F)C2=O)c1` [Example 129, 5-(1-Ethyl-3-(trifluoromethyl)-1H-pyrazol-4-yl)-2-((4-ethylpyridin-2-yl)methyl)-7-((5-imino-1-methyl-1,5-dihydro-4H-1,2,4-triazol-4-yl)methyl)-3,4-dihydroisoquinolin-1(2H)-one]: the GI50 was below 50 nM.

In the case of `COc1ccnc(CN2CCc3c(cc(Cn4ccoc4=N)cc3-c3cn(C)nc3C)C2=O)c1` [Example 85, 5-(1,3-Dimethyl-1H-pyrazol-4-yl)-7-((2-iminooxazol-3(2H)-yl)methyl)-2-((4-methoxypyridin-2-yl)methyl)-3,4-dihydroisoquinolin-1(2H)-one], the GI50 turned out to be 57 nM.

The same assay, now with this note: MV4:11 cells; 5 day incubation; CellTiter-Glo; mean of minimum two replicates; read-out: GI50 on cellular proliferation of MV4:11 human cancer cell lines.
On to `Cc1cc(CN2CCc3c(cc(Cn4ccnc4C)cc3-c3cn(C)nc3C(F)(F)F)C2=O)cnc1Cl` [Example 242, 2-((6-Chloro-5-methylpyridin-3-yl)methyl)-7-((2-methyl-1H-imidazol-1-yl)methyl)-5-(1-methyl-3-(trifluoromethyl)-1H-pyrazol-4-yl)-3,4-dihydroisoquinolin-1(2H)-one], for which the GI50 came to 50 nM.

Source of the values: patent US11999716B2, “WDR5 inhibitors and modulators” (priority 2018, dated 2024).
